Source: PMC4876928 (Clinical cancer research : an official journal of the …, 2016)

Assay: Phase I safety and tolerability: DLTs, MTD, adverse events
Assay type: in vivo, human
[1] = All patients in study (n=120), G3
[2] = All patients in study (n=120), ≤G2
[3] = All patients in study (n=120), ≥G4

Cc1c(CN2CCN(C(=O)[C@H](C)O)CC2)sc2c(N3CCOCC3)nc(-c3cnc(N)nc3)nc12 [apitolisib]
Decreased appetite, treatment related AE, n (%) (30mg 28/28d (n=27), G3): 0
Diarrhea, treatment related AE, n (%) (30mg 28/28d (n=27), G3): 2 (7%)
Dry skin, treatment related AE, n (%) (30mg 28/28d (n=27), G3): 0
Fatigue, treatment related AE, n (%) (30mg 28/28d (n=27), G3): 4 (15%)
Hyperglycemia, treatment related AE, n (%) (30mg 28/28d (n=27), G3): 1 (4%)
Liver dysfunction (abnormal LFTs), treatment related AE, n (%) (30mg 28/28d (n=27), G3): 1 (4%)
Mucosal inflammation, treatment related AE, n (%) (30mg 28/28d (n=27), G3): 0
Nausea, treatment related AE, n (%) (30mg 28/28d (n=27), G3): 1 (4%)
Patients with any AE related to apitolisib, n (%) (30mg 28/28d (n=27), G3): 14 (52%)
Pneumonitis, treatment related AE, n (%) (30mg 28/28d (n=27), G3): 1 (4%)
Pruritus, treatment related AE, n (%) (30mg 28/28d (n=27), G3): 0
Rash (maculopapular, pruritic, macular, erythematous, generalized), treatment related AE, n (%) (30mg 28/28d (n=27), G3): 5 (19%)
Vomiting, treatment related AE, n (%) (30mg 28/28d (n=27), G3): 0
Decreased appetite, treatment related AE, n (%) (30mg 28/28d (n=27), ≤G2): 13 (48%)
Diarrhea, treatment related AE, n (%) (30mg 28/28d (n=27), ≤G2): 16 (59%)
Dry skin, treatment related AE, n (%) (30mg 28/28d (n=27), ≤G2): 7 (26%)
Fatigue, treatment related AE, n (%) (30mg 28/28d (n=27), ≤G2): 15 (56%)
Hyperglycemia, treatment related AE, n (%) (30mg 28/28d (n=27), ≤G2): 0
Liver dysfunction (abnormal LFTs), treatment related AE, n (%) (30mg 28/28d (n=27), ≤G2): 1 (4%)
Mucosal inflammation, treatment related AE, n (%) (30mg 28/28d (n=27), ≤G2): 3 (11%)
Nausea, treatment related AE, n (%) (30mg 28/28d (n=27), ≤G2): 11 (41%)
Patients with any AE related to apitolisib, n (%) (30mg 28/28d (n=27), ≤G2): 12 (44%)
Pneumonitis, treatment related AE, n (%) (30mg 28/28d (n=27), ≤G2): 3 (11%)
Pruritus, treatment related AE, n (%) (30mg 28/28d (n=27), ≤G2): 2 (7%)
Rash (maculopapular, pruritic, macular, erythematous, generalized), treatment related AE, n (%) (30mg 28/28d (n=27), ≤G2): 12 (44%)
Vomiting, treatment related AE, n (%) (30mg 28/28d (n=27), ≤G2): 5 (19%)
Decreased appetite, treatment related AE, n (%) (30mg 28/28d (n=27), ≥G4): 0
Diarrhea, treatment related AE, n (%) (30mg 28/28d (n=27), ≥G4): 0
Dry skin, treatment related AE, n (%) (30mg 28/28d (n=27), ≥G4): 0
Fatigue, treatment related AE, n (%) (30mg 28/28d (n=27), ≥G4): 0
Hyperglycemia, treatment related AE, n (%) (30mg 28/28d (n=27), ≥G4): 1 (4%)
Liver dysfunction (abnormal LFTs), treatment related AE, n (%) (30mg 28/28d (n=27), ≥G4): 0
Mucosal inflammation, treatment related AE, n (%) (30mg 28/28d (n=27), ≥G4): 0
Nausea, treatment related AE, n (%) (30mg 28/28d (n=27), ≥G4): 0
Patients with any AE related to apitolisib, n (%) (30mg 28/28d (n=27), ≥G4): 1 (4%)
Pneumonitis, treatment related AE, n (%) (30mg 28/28d (n=27), ≥G4): 0
Pruritus, treatment related AE, n (%) (30mg 28/28d (n=27), ≥G4): 0
Rash (maculopapular, pruritic, macular, erythematous, generalized), treatment related AE, n (%) (30mg 28/28d (n=27), ≥G4): 0
Vomiting, treatment related AE, n (%) (30mg 28/28d (n=27), ≥G4): 0
DLTs, Description (40 mg 21/28 d, stage 1): G4 fasting hyperglycemia
Decreased appetite, treatment related AE, n (%) (40mg 28/28d (n=51), G3): 0
Diarrhea, treatment related AE, n (%) (40mg 28/28d (n=51), G3): 5 (10%)
Dry skin, treatment related AE, n (%) (40mg 28/28d (n=51), G3): 1 (2%)
Fatigue, treatment related AE, n (%) (40mg 28/28d (n=51), G3): 2 (4%)
Hyperglycemia, treatment related AE, n (%) (40mg 28/28d (n=51), G3): 9 (18%)
Liver dysfunction (abnormal LFTs), treatment related AE, n (%) (40mg 28/28d (n=51), G3): 6 (12%)
Mucosal inflammation, treatment related AE, n (%) (40mg 28/28d (n=51), G3): 3 (6%)
Nausea, treatment related AE, n (%) (40mg 28/28d (n=51), G3): 1 (2%)
Patients with any AE related to apitolisib, n (%) (40mg 28/28d (n=51), G3): 26 (51%)
Pneumonitis, treatment related AE, n (%) (40mg 28/28d (n=51), G3): 2 (4%)
Pruritus, treatment related AE, n (%) (40mg 28/28d (n=51), G3): 1 (2%)
Rash (maculopapular, pruritic, macular, erythematous, generalized), treatment related AE, n (%) (40mg 28/28d (n=51), G3): 7 (14%)
Vomiting, treatment related AE, n (%) (40mg 28/28d (n=51), G3): 1 (2%)
Decreased appetite, treatment related AE, n (%) (40mg 28/28d (n=51), ≤G2): 11 (22%)
Diarrhea, treatment related AE, n (%) (40mg 28/28d (n=51), ≤G2): 23 (45%)
Dry skin, treatment related AE, n (%) (40mg 28/28d (n=51), ≤G2): 7 (14%)
Fatigue, treatment related AE, n (%) (40mg 28/28d (n=51), ≤G2): 34 (67%)
Hyperglycemia, treatment related AE, n (%) (40mg 28/28d (n=51), ≤G2): 5 (10%)
Liver dysfunction (abnormal LFTs), treatment related AE, n (%) (40mg 28/28d (n=51), ≤G2): 2 (4%)
Mucosal inflammation, treatment related AE, n (%) (40mg 28/28d (n=51), ≤G2): 15 (29%)
Nausea, treatment related AE, n (%) (40mg 28/28d (n=51), ≤G2): 22 (43%)
Patients with any AE related to apitolisib, n (%) (40mg 28/28d (n=51), ≤G2): 20 (39%)
Pneumonitis, treatment related AE, n (%) (40mg 28/28d (n=51), ≤G2): 1 (2%)
Pruritus, treatment related AE, n (%) (40mg 28/28d (n=51), ≤G2): 13 (25%)
Rash (maculopapular, pruritic, macular, erythematous, generalized), treatment related AE, n (%) (40mg 28/28d (n=51), ≤G2): 20 (39%)
Vomiting, treatment related AE, n (%) (40mg 28/28d (n=51), ≤G2): 10 (20%)
Decreased appetite, treatment related AE, n (%) (40mg 28/28d (n=51), ≥G4): 0
Diarrhea, treatment related AE, n (%) (40mg 28/28d (n=51), ≥G4): 0
Dry skin, treatment related AE, n (%) (40mg 28/28d (n=51), ≥G4): 0
Fatigue, treatment related AE, n (%) (40mg 28/28d (n=51), ≥G4): 0
Hyperglycemia, treatment related AE, n (%) (40mg 28/28d (n=51), ≥G4): 0
Liver dysfunction (abnormal LFTs), treatment related AE, n (%) (40mg 28/28d (n=51), ≥G4): 0
Mucosal inflammation, treatment related AE, n (%) (40mg 28/28d (n=51), ≥G4): 0
Nausea, treatment related AE, n (%) (40mg 28/28d (n=51), ≥G4): 0
Patients with any AE related to apitolisib, n (%) (40mg 28/28d (n=51), ≥G4): 5 (10%)
Pneumonitis, treatment related AE, n (%) (40mg 28/28d (n=51), ≥G4): 2 (4%)
Pruritus, treatment related AE, n (%) (40mg 28/28d (n=51), ≥G4): 0
Rash (maculopapular, pruritic, macular, erythematous, generalized), treatment related AE, n (%) (40mg 28/28d (n=51), ≥G4): 0
Vomiting, treatment related AE, n (%) (40mg 28/28d (n=51), ≥G4): 0
DLTs, Description (70 mg 21/28 d, stage 1): G3 maculopapular rash and G3 fasting hyperglycemia
treatment related deaths on study (1 at 50 mg QD 21/28, 3 at 40 mg QD 28/28): 4
patients requiring treatment discontinuation for rash (4 patients in stage 2 (2 at 40 mg and 2 at 30 mg QD)): 5.1%
DLTs, Description (All doses, stage 1): Hyperglycemia (n=2) Rash
Decreased appetite, treatment related AE, n (%) [1]: 0
Diarrhea, treatment related AE, n (%) [1]: 11 (9%)
Dry skin, treatment related AE, n (%) [1]: 1 (1%)
Fatigue, treatment related AE, n (%) [1]: 7 (6%)
Hyperglycemia, treatment related AE, n (%) [1]: 18 (15%)
Liver dysfunction (abnormal LFTs), treatment related AE, n (%) [1]: 9 (8%)
Mucosal inflammation, treatment related AE, n (%) [1]: 4 (3%)
Nausea, treatment related AE, n (%) [1]: 2 (2%)
Patients with any AE related to apitolisib, n (%) [1]: 51 (42%)
Pneumonitis, treatment related AE, n (%) [1]: 4 (3%)
Pruritus, treatment related AE, n (%) [1]: 1 (1%)
Rash (maculopapular, pruritic, macular, erythematous, generalized), treatment related AE, n (%) [1]: 14 (12%)
Vomiting, treatment related AE, n (%) [1]: 1 (1%)
Decreased appetite, treatment related AE, n (%) [2]: 42 (35%)
Diarrhea, treatment related AE, n (%) [2]: 60 (50%)
Dry skin, treatment related AE, n (%) [2]: 16 (13%)
Fatigue, treatment related AE, n (%) [2]: 73 (61%)
Hyperglycemia, treatment related AE, n (%) [2]: 9 (8%)
Liver dysfunction (abnormal LFTs), treatment related AE, n (%) [2]: 4 (3%)
Mucosal inflammation, treatment related AE, n (%) [2]: 27 (23%)
Nausea, treatment related AE, n (%) [2]: 48 (40%)
Patients with any AE related to apitolisib, n (%) [2]: 60 (50%)
Pneumonitis, treatment related AE, n (%) [2]: 8 (7%)
Pruritus, treatment related AE, n (%) [2]: 22 (18%)
Rash (maculopapular, pruritic, macular, erythematous, generalized), treatment related AE, n (%) [2]: 47 (39%)
Vomiting, treatment related AE, n (%) [2]: 24 (20%)
Decreased appetite, treatment related AE, n (%) [3]: 0
Diarrhea, treatment related AE, n (%) [3]: 0
Dry skin, treatment related AE, n (%) [3]: 0
Fatigue, treatment related AE, n (%) [3]: 0
Hyperglycemia, treatment related AE, n (%) [3]: 2 (2%)
Liver dysfunction (abnormal LFTs), treatment related AE, n (%) [3]: 0
Mucosal inflammation, treatment related AE, n (%) [3]: 0
Nausea, treatment related AE, n (%) [3]: 0
Patients with any AE related to apitolisib, n (%) [3]: 8 (7%)
Pneumonitis, treatment related AE, n (%) [3]: 2 (2%)
Pruritus, treatment related AE, n (%) [3]: 0
Rash (maculopapular, pruritic, macular, erythematous, generalized), treatment related AE, n (%) [3]: 0
Vomiting, treatment related AE, n (%) [3]: 0
maximum tolerated dose (MTD) (QD, 21/28-day schedule, DLT <33.3%): 50 mg
recommended phase 2 dose (RP2D) (QD, 28/28-day schedule, except MPM patients): 40 mg
recommended dose for MPM (QD, 28/28 schedule, malignant pleural mesothelioma patients): 30 mg
maximum administered dose (MAD) (QD, continuous 28/28 schedule): 50 mg
diarrhea, treatment related ≥G3 (RP2D 40 mg QD): 10%
fatigue, treatment related ≥G3 (RP2D 40 mg QD): 4%
hyperglycemia, treatment related ≥G3 (RP2D 40 mg QD): 18%
liver dysfunction, treatment related ≥G3 (RP2D 40 mg QD): 12%
mucosal inflammation, treatment related ≥G3 (RP2D 40 mg QD): 6%
pneumonitis, treatment related ≥G3 (RP2D 40 mg QD): 8%
rash, treatment related ≥G3 (RP2D 40 mg QD): 14%
pneumonitis cases reported on study (all patients, six severe): 14
MTD (continuous 28/28 schedule): not reached
dose reductions due to diarrhea (human, in vivo, oral): 2 n
dose reductions due to mucosal inflammation (human, in vivo, oral): 2 n
dose reductions due to pneumonitis (human, in vivo, oral): 2 n
rate of severe pneumonitis (grade ≥3) (in vivo): 8%
patients with pneumonitis outside the DLT window (stage 1, including 3 severe cases): 8 patients
